Experimental data reported in PubChem BioAssay AID2060486 (Molecular Pharmacology Branch, DTP, NCI, 2025).
pIC50: −log10 of the molar value. “And” between values parts separate entries of the source, which are not always exact repeats. Equal entries are not always repeated.

System: IGROV1 complex spheroids (HUVEC, MSC), viability % test/control
Assay: Anticancer human tumor IGROV1 cell line growth inhibition [GQUAD];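 note: spheroids exposed to compounds for 7 days before readout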
Conditions: for viability, T/C: stronger effect = lower value; for pIC50: curve of compound; for IC50: compound alone
Source text: DNA G-quadruplex Stabilizer Agents in Combinations in Complex Spheroids
A high-throughput screen of multi-cell type tumor spheroids was designed to identify active combinations of DNA G-quadruplex stabilizer agents and targeted small molecules. Complex spheroids include a stromal component modeled by human endothelial cells (HUVEC) and fibroblasts modeled by human mesenchymal stem cells (MSCs). The concentration ranges selected for each drug and investigational agent were based upon clinically achievable concentrations if the clinical Cmax of the agent was known.
Compounds. The drugs and investigational agents: pidnarulex (CX-5461; NSC782164), APTO-253 (NSC789042), BRACO-19 (NSC847499), peposertib (NSC802822), ceralasertib (NSC780249), elimusertib (NSC800525), camonsertib (NSC841442), AZD-1390 (NSC803789), olaparib (NSC753686), talazoparib (NSC767125), ART-558 (NSC835418), sotorasib (NSC818433), MRTX-1133 (NSC836407), SN-38 (NSC673596), topotecan (NSC609699), etoposide (NSC141540), doxorubicin (NSC123127), gemcitabine (NSC613327), 5-fluorouracil (NSC19893), paclitaxel (NSC125973), vemurafenib (NSC761431), panobinostat (NSC761190), R-306465 (JNJ-16241199; NSC773264), adavosertib (NSC754352), TP-3654 (NSC805149), carboplatin (NSC241240), KSQ-4279 (NSC840948), and staurosporine (NSC755774) were obtained from the National Cancer Institute (NCI) Developmental Therapeutics Program Chemical Repository (34). The FDA-approved anticancer drug set is available from the NCI Developmental Therapeutics Program. […] The stock solutions were prepared in dimethyl sulfoxide (DMSO, Sigma-Aldrich, St. Louis, MO, cat. D2650) at 800-fold the tested concentration and stored at -70 degrees C prior to their use. All drugs and investigational agents were tested over a range starting from a high concentration at or near the clinical Cmax and decreasing in half-log increments. If the clinical Cmax for an agent had not been determined, the highest concentration tested was 10 microM.
2.3 Cell Culture. All cells were maintained in an incubator at 37 degrees C and 5% CO2 with 95% humidity. The PDC lines were cultured according to standard operating procedures established by the NCI PDMR. All PDCs were thawed and cultured in Matrigel-coated flasks prepared with a working solution of 1X Ham's F-12 nutrient mix, without supplementation (Invitrogen, cat. 11765054), 100 U/mL penicillin-streptomycin (Invitrogen, cat. 15140122), and 2.5% Matrigel (Corning Inc., cat. 354248) for the first three passages. The 857933-349-R-J2-PDC line was cultured in 6C/Colon 1B media, which includes advanced DMEM/F-12 (Thermo Fisher Scientific, cat. 12634028), 10 mM HEPES (Thermo Fisher Scientific, cat. 15630080), 1X GlutaMAX supplement (Thermo Fisher Scientific, cat. 35050061), 0.1 mg/mL primocin (InvivoGen, cat. ant-pm-2), 10% defined fetal bovine serum, heat inactivated (HyClone Laboratories Inc., cat. SH30070.03HI), 50% L-WRN conditioned media (ATCC, cat. CRL-3276), 1.25 mM N-Acetyl-L-cysteine (Sigma-Aldrich, cat. A9165), 10 mM nicotinamide (Sigma-Aldrich, cat. N0636), 1X B-27 supplement (Thermo Fisher Scientific, cat. 17504044), 1X N-2 supplement (Thermo Fisher Scientific, cat. 17502048), 10 microM Y-27632 dihydrochloride (Tocris Bioscience, cat. 1254), and 50 ng/mL human EGF recombinant protein (Thermo Fisher Scientific, cat. PHG0311). The 485176-168-R4-J1-PDC line was cultured in Panc media, which includes all 6C/Colon 1B media components plus 100 ng/mL human FGF-10 (Thermo Fisher Scientific, cat. 100-26), 500 nM SB-431542 (Selleckchem, cat. S1067), and gastrin (Tocris, cat. 3006).
[…]

Row | Structure (SMILES) | viability, T/C (compound 0.0316 µM) | viability, T/C (compound 0.1 µM) | viability, T/C (compound 0.316 µM) | viability, T/C (compound 1 µM) | viability, T/C (compound 3.16 µM) | viability, T/C (compound 10 µM) | pIC50 | IC50 (run of 03/18/2024) | IC50 (run of 03/26/2024) | viability, T/C (compound 0.000999 µM) | viability, T/C (compound 0.00316 µM) | viability, T/C (compound 0.00999 µM) | viability, T/C (compound 0.0999 µM)
1 | COc1cc(C2c3cc4c(cc3C(OC3OC5COC(C)OC5C(O)C3O)C3COC(=O)C23)OCO4)cc(OC)c1O (stereo not given) | 87.7% and 74.7% and 87.1% | 50.5% and 54.1% and 56.5% | 23.5% and 21.2% and 26.5% | 14% and 12.6% and 12.7% | 10.9% and 11.7% and 9.02% | 5.01% and 6.17% and 5.68% | 7.00 and 6.94 and 6.89 | – | – | – | – | – | –
2 | COc1ccc([C@@H](O)c2cc(-c3ncnc4cc(N5CCOCC5)ccc34)c(F)cc2Cl)nn1 | 98.6% and 95.7% and 99.4% | 88.4% and 81.6% and 65.6% | 91.1% and 92.8% and 94.7% | 50.6% and 64.3% and 60.5% | 20.1% and 18% and 17.6% | 6.24% and 5.2% and 5.02% | 5.96 and 5.84 and 5.87 | – | – | – | – | – | –
3 | COc1cccc2c1C(=O)c1c(O)c3c(c(O)c1C2=O)CC(O)(C(=O)CO)CC3OC1CC(N)C(O)C(C)O1 (stereo not given) | 67.5% and 64.3% and 55.3% | 16.6% and 19.5% and 22.7% | 8.67% and 8.83% and 8.72% | 3.86% and 4.47% and 4.45% | 0.12% and 0.15% and 0.11% | 0.59% and 1.33% and 0.9% | 7.33 and 7.34 and 7.42 | – | – | – | – | – | –
4 | COc1ncnc(C2CC2)c1-c1ncc2cnn(Cc3ccc(-c4nc(C(F)(F)F)cn4C(C)C)cc3)c2n1 | 99.3% and 85% and 100% | 82.7% and 93.3% and 87% | 94.9% and 98.1% and 93% | 90.1% and 91.9% and 96.5% | 78.2% and 69.5% and 96.9% | 94.5% and 82.1% and 77.6% | < 5.00 | – | – | – | – | – | –
5 | Cc1[nH]c2ccc(F)cc2c1-c1nc2c3cccnc3c3ncccc3c2[nH]1 | – | 101% [middle of 12 runs] | – | 4.97% [middle of 12 runs] | 4.72% [middle of 12 runs] | 4.29% [middle of 12 runs] | – | 561 nM [middle of 8 runs] | 531 nM [middle of 4 runs] | – | – | – | –
6 | Cc1[nH]c2ccccc2c1CCNCc1ccc(/C=C/C(=O)NO)cc1 | 34.2% and 33.4% and 38.3% | – | 0.26% (2×) and 0.27% | – | – | – | 7.66 and 7.69 and 7.63 | – | – | 108% and 102% and 86.4% | 89.8% and 85.8% and 90.5% | 83.8% and 79.4% and 81.5% | 4.41% and 3.52% and 3.65%
7 | Cc1cccc(N(C)C(=O)C2C(O)CCN2c2nc(C)cc(C(F)(F)F)c2C#N)c1 (stereo not given) | 85.7% and 108% and 109% | 86.3% and 92.3% and 87.3% | 100% (2×) and 103% | 87.2% and 85.6% and 91% | 89.7% and 99.7% and 89% | 88.3% and 93.8% and 78% | < 5.00 | – | – | – | – | – | –
8 | Cc1cnc(CNC(=O)c2c(=O)c3ccc(N4CCCN(C)CC4)nc3n3c2sc2ccccc23)cn1 | 71.2% [middle of 12 runs] | 40.9% [middle of 12 runs] | 27% [middle of 12 runs] | 16.7% [middle of 12 runs] | 11.6% [middle of 12 runs] | 11.3% [middle of 12 runs] | – | 68.4 nM [middle of 11 runs] | – | – | – | – | –
9 | Cn1ncnc1[C@H]1c2n[nH]c(=O)c3cc(F)cc(c23)N[C@@H]1c1ccc(F)cc1 | 70% and 67.1% and 66.2% | – | 36.7% and 29.4% and 34.7% | – | – | – | 6.89 and 6.96 and 7.11 | – | – | 97.2% and 105% and 82.2% | 92.2% and 77% and 90.2% | 76.3% and 86.3% and 86.2% | 53.7% and 55% and 46.8%
10 | Nc1ccn(C2OC(CO)C(O)C2(F)F)c(=O)n1 (stereo not given) | 12.1% and 11.8% and 8.43% | 5.96% and 5.24% and 5.38% | 5.74% and 5.8% and 4.72% | 6.33% and 6.36% and 4.79% | 6.11% and 5.6% and 4.26% | 5.62% and 5.26% and 4.2% | > 7.50 | – | – | – | – | – | –
11 | O=C(NO)c1cnc(N2CCN(S(=O)(=O)c3ccc4ccccc4c3)CC2)nc1 | 65% and 73.3% and 81.7% | 24% and 32.4% and 40.8% | 4.46% and 3.52% and 3.88% | 0.24% and 0.3% and 0.34% | 0.04% (2×) and 0.15% | 0.06% and 0.13% and 0.05% | 7.32 and 7.21 and 7.11 | – | – | – | – | – | –
12 | O=C(c1cc(Cc2n[nH]c(=O)c3ccccc23)ccc1F)N1CCN(C(=O)C2CC2)CC1 | 87.6% and 92% and 100% | 91.8% and 91.9% and 84.2% | 93.4% and 85.7% and 102% | 77.6% and 81.8% and 83.7% | 63.9% and 52.6% and 40% | 26.5% and 25.6% and 20.9% | 5.32 and 5.45 and 5.61 | – | – | – | – | – | –
13 | O=c1[nH]cc(F)c(=O)[nH]1 | 109% and 96.5% and 111% | 86.7% and 99.3% and 94.8% | 99.8% and 104% and 106% | 95.4% and 96.4% and 96.5% | 69.2% and 93.7% and 84.7% | 30.4% and 23.8% and 19.9% | 5.25 and 5.19 and 5.24 | – | – | – | – | – | –
